Assay results published in patent US20230026772A1, “DIBENZOPYRAN AMPK ACTIVATOR COMPOUNDS, COMPOSITIONS, METHODS AND USES THEREOF” (SOCIETE DES PRODUITS NESTLE S.A., priority 2019, published 2023).

Experiments:
[1] = tested on: AMPK complexes containing β1 WT subunit; assay: pACC HTRF assay in AMPKβ1/β2 double knockout U-2 OS cells stably expressing β1 WT; format: cell-based, human; details: AMPKβ1β2 double knockout cells stably expressing β1 WT, varying concentrations, 30 mins at 37 C; FIG. 3 and FIG. 4
Description: (§1) The β1 WT or β1 S108A mutant were stably expressed in AMPKβ1β2 double knockout cells and treated with varying concentrations of compound 1 or compound 2 for 30 mins at 37 C. Phosphorylation of ACC was assessed using the HTRF Cisbio (pACC kit).
(§2) U-2 OS cells AMPKβ1β2 double knockout cells stably expressing AMPK β1 or β2 were treated with varying concentrations of Compound 1 or compound 2 for 30 mins at 37 C.
(§3) Phosphorylation of ACC was assessed using the HTRF Cisbio (pACC kit).
(§4) AMPKβ1/β2 double knockout U-2 OS Flp-In™ T-Rex™ cell lines were generated and cells were genotyped and analysed by Western blotting to confirm that there was a complete knockout of AMPKβ1/β2. We took these AMPKβ1/β2 double knockout cells, and re-introduced the expression of human β1 wild-type (WT) or a β1 Serine 108 to alanine mutation (S108A). This was achieved using the Flp-In™ system (Invitrogen) present in this cell line and stable cells expressing β1 WT or a β1 S108A mutant were generated according to the manufacturers' protocols.
(§5) Cells stably expressing β1 WT or a β1 S108A mutant were treated with varying concentrations of compound 1 and compound 2 and subjected to the pACC HTRF (Cisbio) assay to determine the level of phosphorylation of the AMPK substrate, ACC, in cell lysates, as in Example 2.
We took AMPKβ1/β2 double knockout cells, and re-introduced the expression of human β1 WT or β2 WT isoforms. […]

AMPKα2β1γ1 complex = molecular target: T1, AMPKα2β1γ1 complex (Homo sapiens, UniProt P54646+Q9Y478); assay: HTRF KinEASE activity assay with bacterially-expressed, phosphorylated purified AMPKα2β1γ1; format: biochemical; details: varying concentrations, 30 mins incubation, cell free; FIG. 1
T1 construct: His; made in house
T1 sequence (P54646 whole entry): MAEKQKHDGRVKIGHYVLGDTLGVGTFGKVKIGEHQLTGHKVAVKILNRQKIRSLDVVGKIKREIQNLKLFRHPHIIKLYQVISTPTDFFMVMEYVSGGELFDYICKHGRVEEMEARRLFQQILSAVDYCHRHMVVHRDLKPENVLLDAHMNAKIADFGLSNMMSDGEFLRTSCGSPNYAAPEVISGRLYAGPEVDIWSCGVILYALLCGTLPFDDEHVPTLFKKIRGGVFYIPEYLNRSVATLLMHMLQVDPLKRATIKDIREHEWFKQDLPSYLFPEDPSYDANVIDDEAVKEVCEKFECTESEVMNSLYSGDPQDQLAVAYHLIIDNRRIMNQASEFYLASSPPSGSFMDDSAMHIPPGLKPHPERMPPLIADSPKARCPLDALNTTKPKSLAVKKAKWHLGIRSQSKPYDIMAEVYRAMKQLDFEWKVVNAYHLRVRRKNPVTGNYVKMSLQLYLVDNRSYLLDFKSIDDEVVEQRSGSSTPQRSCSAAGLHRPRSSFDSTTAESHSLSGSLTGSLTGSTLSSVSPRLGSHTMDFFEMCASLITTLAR
T1 sequence (Q9Y478 whole entry): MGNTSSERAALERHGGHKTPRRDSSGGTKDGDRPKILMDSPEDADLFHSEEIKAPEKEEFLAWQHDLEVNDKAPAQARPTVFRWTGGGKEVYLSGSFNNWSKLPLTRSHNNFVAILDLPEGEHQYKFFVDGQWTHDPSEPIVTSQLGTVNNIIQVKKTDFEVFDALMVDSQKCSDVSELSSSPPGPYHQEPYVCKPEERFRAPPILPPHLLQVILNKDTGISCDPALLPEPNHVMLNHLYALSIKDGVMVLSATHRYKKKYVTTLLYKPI
T1 sequence (P54619 whole entry partner): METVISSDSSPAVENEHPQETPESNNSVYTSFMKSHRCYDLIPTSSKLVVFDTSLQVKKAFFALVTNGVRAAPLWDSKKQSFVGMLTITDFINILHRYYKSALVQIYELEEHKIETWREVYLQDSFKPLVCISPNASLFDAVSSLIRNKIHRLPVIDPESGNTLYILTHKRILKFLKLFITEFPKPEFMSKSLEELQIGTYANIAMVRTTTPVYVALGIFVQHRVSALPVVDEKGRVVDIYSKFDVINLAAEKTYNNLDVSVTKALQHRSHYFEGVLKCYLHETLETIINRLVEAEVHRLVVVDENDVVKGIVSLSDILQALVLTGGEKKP
Description: Varying concentrations of compound 1 and compound 2 were incubated with phosphorylated purified AMPK α2β1γ1 for 30 mins. AMPK activity was determined using the HTRF KinEASE assay kit and results are presented as the ratio of 665/620 nm (STK1 phosphorylation).
The AMPKα2β1γ1 complex was expressed in bacteria and purified through the His-α subunit by nickel purification, purified through gel filtration and phosphorylated by incubation with CaMKKβ, and then further purified through a final gel filtration purification step. Phosphorylated purified AMPK was incubated with varying concentrations of ligand for 30 mins along with substrate and reagents from the HTRF-KinEASE Cisbio assay kit (STK S1 Kit). Phosphorylation of the substrate was measured by incubating with donor and acceptor antibodies for 2 h at room temperature as per the manufacturer's protocol (Coulerie et al., (2016), J Nat Prod. 2016 Nov. 23; 79(11):2856-2864. Epub 2016 Oct. 28.) and phosphorylated peptide detected by performing HTRF. […] Compound 1 is 3-methoxy-6H-benzo[c]chromene-1,8-diol and Compound 2 is 8-methoxy-6H-benzo[c]chromene-3,10-diol.

[2] = tested on: AMPK complexes containing β1 S108A mutation at the ADaM site; assay: pACC HTRF assay in AMPKβ1/β2 double knockout U-2 OS cells stably expressing β1 S108A mutant; format: cell-based, human; details: AMPKβ1β2 double knockout cells stably expressing β1 S108A mutant, varying concentrations, 30 mins at 37 C; FIG. 3
Description: as §1, §4, §5

[3] = tested on: AMPK complexes containing the β2 isoform subunit; assay: pACC HTRF assay in AMPKβ1/β2 double knockout U-2 OS cells stably expressing β2 WT; format: cell-based, human; details: AMPKβ1β2 double knockout cells stably expressing β2 WT isoform, varying concentrations, 30 mins at 37 C; FIG. 4
Description: as §2, §3
We took AMPKβ1/β2 double knockout cells, and re-introduced the expression of human β1 WT or β2 WT isoforms. […] Cells stably expressing β1 WT or β2 WT were treated with varying concentrations of compound 1 and compound 2, and subjected to the pACC HTRF (Cisbio) assay to determine the level of phosphorylation of the AMPK substrate, ACC, in cell lysates, as in example 2. […] This activation profile is characteristic of activators that bind to the ADaM site and consistent with previous studies showing that ADaM-site activators have poorer activation of β2-containing complexes in vitro and in cells.

[4] = tested on: AMPK (phosphorylation of ACC) in U-2 OS Flp-In T-REx mammalian cells; assay: pACC HTRF (Cisbio) assay in U-2 OS Flp-In T-REx cells; format: cell-based; details: varying concentrations, 30 mins at 37 C, FIG. 2
Description: U-2 OS cells were treated with varying concentrations of compound 1 or compound 2 for 30 mins at 37 C. Phosphorylation of ACC was assessed using the HTRF Cisbio (pACC kit).
U-2 OS Flp-In T-REx cells were seeded at 50 K in a 96-well plate and left overnight at 37 C in DMEM GlutaMAX (Thermo Fisher Scientific) supplemented with 10% (vol/vol) FBS and 100 U/ml penicillin G, and 100 μg/ml streptomycin. Cells were treated for 30 mins with varying concentrations of Compound 1 in media lacking FBS and then cells were lysed in 50 μl of Cisbio lysis buffer #1 supplemented with blocking solution as per the manufacturer's protocol (Cisbio). Cells were lysed for 30 mins at room temperature before 16 μl of lysate was incubated with 4 μl of the HTRF antibodies (1:40 dilution of the acceptor and donor (p) ACC antibodies, as per the manufacturers protocol). Lysates were incubated overnight with the antibodies before 665 nm/620 nm ratio was determined using a MolecularDevices i3 plate reader (with a HTRF cartridge add-on). The results are plotted as fold activation compared to the respective AMPK complex without any compound.

Row | Structure (SMILES) | Phosphorylation of ACC (pACC, fold increase relative to untreated cells) [1] | AMPK activity (665 nm/620 nm ratio, STK1 substrate phosphorylation) (AMPKα2β1γ1 complex) | Phosphorylation of ACC (pACC, fold increase relative to untreated cells) [2] | Phosphorylation of ACC (pACC, fold increase relative to untreated cells) [3] | Phosphorylation of ACC (fold activation relative to untreated cells) [4]
1 | COc1cc(O)c2c(c1)OCc1cc(O)ccc1-2 [Compound 1, 3-methoxy-6H-benzo[c]chromene-1,8-diol] | able to dose-dependently increase pACC | allosterically activate AMPKα2β1γ1 in a dose-dependent manner | not able to increase pACC | not able to increase pACC | increase the phosphorylation of the AMPK substrate, ACC, in a dose-dependent manner
2 | COc1cc(O)c2c(c1)COc1cc(O)ccc1-2 [Compound 2, 8-methoxy-6H-benzo[c]chromene-3,10-diol] | able to dose-dependently increase pACC | allosterically activate AMPKα2β1γ1 in a dose-dependent manner | not able to increase pACC | not able to increase pACC | increase the phosphorylation of the AMPK substrate, ACC, in a dose-dependent manner
